Structures can show the parent of a compound that is named as a salt. Values belong to the compound of their own block, whether it stands above or below them.
What was measured:
[1] = osmotic shock method; cited from earlier work
[2] = In vitro release of BUP by dialysis; format: physicochemical; settings: dialysis 8-10 kD, 1×PBS pH 7.4, 37° C.; free BUP at 0.5% (w/v) and saturated concentrations
Experimental: To assess the release kinetics of BUP from the BUP@EXO, a dialysis method was employed. Specifically, 1 mL of BUP@EXO, containing 5 mg BUP, was introduced into a Spectra/Por Float-A-Lyzer G2 dialysis bag with a molecular weight cutoff ranging from 8-10 kD (Spectrum Laboratories, Ranchodominguez, CA). This bag was then immersed in 20 mL of phosphate-buffered saline (PBS) with a pH of 7.4. The setup was maintained at 37° C. and subjected to continuous 200 rpm shaking. At specified time points, the dialysis bag was relocated to fresh 1×PBS to ensure a consistent concentration gradient. The concentration of BUP in the dialysate was ascertained by measuring its absorbance at 272 nm and referencing it against a pre-established standard curve. We collected the washout solutions (filtrate) in the lower chambers of centrifugal filters. Subsequently, these solutions underwent UV-Vis spectroscopy to determine the BUP concentration. The encapsulation efficiency is thereby calculated by
We conducted in-depth in vitro drug release kinetic analysis at 37° C. for our BUP@EXO formulations. 1 mL of BUP@EXO in 1×PBS, containing 5 mg BUP, was introduced into a dialysis bag with a molecular weight cutoff ranging from 8-10 kD. The dialysis bag was then immersed in 20 mL of 1×PBS with a pH of 7.4. The setup was maintained at 37° C. and subjected to continuous shaking of 200 rpm. […]

sciatic nerve [3] = experiment: Rat sciatic nerve block, neurobehavioral test (hot plate thermal latency, weight bearing); format: in vivo; settings: for nerve block at injected site (observation): single sciatic nerve injection 0.3 mL
Description: Adult male Sprague-Dawley rats (Charles River Laboratories, Wilmington, MA) weighing 250-350 g were housed in groups, in a 6 am-6 pm light-dark cycle. Animals were cared for in accordance with protocols approved by the Institutional Animal Care and Use Committee of the University of Alabama (Protocol ID: 19-11-2992), and the Guide for the Care and Use of Laboratory Animals of the US National Research Council.
Nerve block injections were meticulously executed utilizing a 23-gauge needle, with rats being anesthetized under a combination of isoflurane and oxygen. […] Additionally, injections of free BUP were given at doses of 0.75 mg and 1.5 mg. A control group received an injection of 50 μg of empty exosomes. The injection technique involved positioning the needle posteromedially to the greater trochanter and directing it anteromedially. Upon making contact with the bone, the prepared solution was administered.
Subsequently, the rats underwent neurobehavioral test to determine the duration of functional deficits (i.e., sensory and motor nerve blockade) in both hind paws. The duration of deficits on the injected side (left, ipsilateral) reflected the duration of nerve block. Any deficits observed on the uninjected side (right, contralateral) were indicative of the systemic BUP distribution.
The efficacy of the nerve block was assessed at specified intervals using established methodologies. Sequentially, the left and then the right hind paws of the rats were subjected to a 56° C. hot plate (model 39D Hot Plate Analgesia meter; IITC Inc., Woodland Hills, CA). The duration until the paw was withdrawn, termed thermal latency, was meticulously recorded. […] Thermal latency serves as an indicator of analgesic potency. […] For a systemic effect baseline, latency was also gauged in the non-injected leg. The duration of the thermal nociceptive block was determined as the time taken for the thermal latency to revert from an elevated value to a baseline of 7 seconds. In adult rats, this 7-second threshold represents the median between the maximum block and the typical thermal latency, which is roughly 2 seconds, with the upper limit being 12 seconds. Motor function was evaluated by suspending the animal over a balance and recording the maximum weight the animal could bear. The duration of motor blockade was determined as the period until weight-bearing capacity returned to half of its normal level from the point of maximal block. For each rat, the halfway point was calculated as [(highest weight borne by either leg)−(lowest weight borne by the blocked leg)]/2+the lowest weight borne by the blocked leg.

[4] = tested on: muscle at the injection site; experiment: Muscle histology (H&E) inflammation and myotoxicity scoring; format: in vivo, rat
Description: Following euthanasia, the sciatic nerve and adjacent muscle tissues were meticulously extracted. Muscle specimens underwent processing to yield slides stained with hematoxylin and eosin. A macroscopic dissection score was assigned based on the following criteria: 0=tissue planes obvious and easily separated; 1=tissue planes obvious but separated with some difficulty; 2=tissue planes adherent and separated with some difficulty; 3=tissue planes completely obliterated, could not separate surrounding tissues from nerve without cutting through them. Muscle samples underwent evaluation for inflammation (on a scale of 0-4) and myotoxicity (on a scale of 0-6). The inflammation score was a subjective measure of its severity. The myotoxicity score was based on two hallmark features of local anesthetic-induced myotoxicity: nuclear internalization and regeneration. […] Regeneration manifests as contracted myocytes with basophilic cytoplasm. The scoring was as follows: 0=normal; 1=perifascicular internalization; 2=deep internalization (>5 cell layers), 3=perifascicular regeneration, 4=deep regeneration, 5=hemifascicular regeneration, 6=holofascicular regeneration.
The sciatic nerve and surrounding tissues were harvested, sectioned, and stained for histologic assessment. Muscle tissues were processed for hematoxylin-eosin (H&E) staining. The myotoxicity and inflammation were quantified using a previously reported scoring system (Table 1, Table 2).

sciatic nerve [5] = experiment: Sciatic nerve histology (toluidine blue) for neurotoxicity; format: in vivo, rat
Description: For nerve injury histology, samples underwent Epon-embedding and fixation using Karnovsky's KII Solution, which comprises 2.5% glutaraldehyde, 2.0% paraformaldehyde, and 0.025% calcium chloride in a 0.1 M sodium cacodylate buffer with a pH of 7.4. Subsequently, samples were post-fixed using osmium tetroxide, stained with uranyl acetate, and then dehydrated through a series of ethanol solutions. This was followed by infiltration with mixtures of propylene oxide and Epon. Sections, with a thickness of 0.5 μm, were then stained using toluidine blue, facilitating high-resolution light microscopy examination.
Epon-embedded sections of the sciatic nerve were stained with toluidine blue. […] Furthermore, when 2.5 mg free BUP was injected, 3 out of 4 tissues presented significant nerve degeneration, which is determined by the density decrease of nerve fibers within the nerve section (FIG. 6b).

[6] = tested on: Creatine Kinase (CK-total, CK-MB) activity in serum; experiment: Serum creatine kinase activity (CK-total, CK-MB), cardiotoxicity; format: in vivo, rat; settings: 48 hours after injection
Experimental: In another experiment, rats were euthanized at the 48-hour mark. Blood samples were meticulously collected through two methods: a cardiac puncture, which involves drawing blood directly from the heart, and a separate collection from the femoral artery. Once collected, the blood samples were subjected to centrifugation, a process that separates the serum from other blood components. The isolated serum was then analyzed for creatine kinase activity using a colorimetric assay kit for creatine kinase activity. The intensity was quantified using a plate-reader, an instrument that measures absorbance levels.
It is important to recognize that the side effects of BUP and other local anesthetics go beyond just localized tissue reactions. A major concern with administering BUP is its potential harmful cardiotoxic effects. This can be particularly severe in certain instances, such as arrhythmias and cardiac asystole. Cardiotoxicity can be observed through increased activity of Creatine Kinase(CK), an family of enzymes that is released into the blood in response to lesions in contractile fibers, serve as biochemical markers for muscle damage, including myocardial injury. Elevated activity levels of CK, especially its cardiomyocyte isoform—Creatine Kinase-Myocardial Band (CK-MB), can be a warning sign for serious outcomes such as cardiac arrhythmias, heart failure, and other cardiovascular complications.
Two types of samples were obtained: from the femoral artery and cardiac puncture. These samples were analyzed to evaluate the activity in serum of total CK (CK-total) and its cardiomyocyte isoform (CK-MB).

SMILES: CC(=O)CCCCn1c(=O)c2c(ncn2C)n(C)c1=O [pentoxifylline]
encapsulation efficiency (drug per protein-equivalent exosomes) [1]: 0.85 μg of drug per μg of protein-equivalent exosomes

cumulative release within initial 5-hour period [2]: near-complete cumulative release | contralateral nerve blockade (systemic distribution) (sciatic nerve [3]; 0.75 mg BUP equivalent, uninjected side): no contralateral nerve blockade | contralateral nerve blockade (systemic distribution) (sciatic nerve [3]; 1.5 mg BUP equivalent, uninjected side): no contralateral nerve blockade | occurrence of drowsiness (sciatic nerve [3]; 2.5 mg BUP): 3 out of 4 animals | contralateral sensory nerve blockade (systemic distribution) (sciatic nerve [3]; 2.5 mg BUP equivalent, uninjected side): 3 out of 4 animals | contralateral thermal latency (sciatic nerve [3]; 2.5 mg BUP, uninjected side, 56° C. hot plate): ~7 s
SMILES: CCCCN1CCCCC1C(=O)Nc1c(C)cccc1C (stereo not shown) [free BUP, Bupivacaine Hydrochloride]
success rate of nerve blockade (sciatic nerve [3]; 0.75 mg BUP equivalent): 0% | nerve block at injected site (observation) (sciatic nerve [3]; 0.75 mg BUP in PBS): neither a detectable nerve block nor toxicity | duration of motor blockade (sciatic nerve [3]; 1.5 mg BUP equivalent): 0.458 ± 0.176 h | duration of sensory nerve blockade (sciatic nerve [3]; 1.5 mg BUP equivalent): 1.833 ± 0.250 h | nerve block at injected site (observation) (sciatic nerve [3]; 1.5 mg BUP in PBS): successfully induced nerve block at the injected sites in all animals | duration of motor blockade (sciatic nerve [3]; 2.5 mg BUP equivalent): 2.12 ± 0.54 h | duration of sensory nerve blockade (sciatic nerve [3]; 2.5 mg BUP equivalent): 2.75 ± 0.43 h | myotoxicity score (scale 0-6) ([4]; 1.5 mg, 4 days, 1 of 4 rats): 2 | inflammation score (out of 4) ([4]; 2.5 mg, 48 hours): up to 3 | myotoxicity score (out of 6) ([4]; 2.5 mg, 48 hours): up to 3 | tissues with signs of neurotoxicity (sciatic nerve [5]; 1.5 mg, 48 hours): 1 out of 4 | tissues with significant nerve degeneration (sciatic nerve [5]; 2.5 mg): 3 out of 4 | Creatine Kinase activity profiles (CK-total, CK-MB) vs blank control ([6]; 0.75 mg): did not result in significant alteration | CK activity vs blank control ([6]; 1.5 mg): considerable elevation in CK activity | CK activity vs blank control ([6]; 2.5 mg): considerable elevation in CK activity

Source: patent publication US20250241862A1, “EXOSOMAL COMPOSITIONS INCLUDING ANESTHETICS” (THE BOARD OF TRUSTEES OF THE UNIVERSITY OF ALABAMA, priority 2024, published 2025)
